The subject of this experiment is ligand-detection complex of Compound 15 and P-Tyr-100 antiphosphotyrosine monoclonal antibody. Briefly: Displacement of phosphotyramide-dye ligand analog by phosphotyrosine (Example 21). Format: binding, mouse. The settings on record: 10 μM. The method, then: Solutions containing 100 nM ligand analog Compound 15 or ligand-detection complex (100 nM (B573-85-HCK)+100 nM P-Tyr-100 antiphosphotyrosine monoclonal antibody (Cell Signaling Technology, Beverly, Mass.)) were prepared in 50 mM Tris-HCl pH 7.5, 10 mM MgCl2, 0.01% Brij-35, 100 μM ATP, 2 mM DTT, 1 mM EGTA. Fluorescence emission spectra of these samples were recorded on a Hitach F-4500 spectrofluorometer using an excitation wavelength of 470 nm. O-phosho-L-tyrosine (Sigma Chemical Co., St. Louis, Mo.) or phosphotyrosine peptide (phospho-pp60 c-src (521-533); TSTEPQY*QPGENL, Bachem California, Inc. Torrance, Calif.) at a concentration of 10 μM were added to samples of the detection complex and the resulting change in fluorescence was measured. See, FIG. 13.

In the case of `N[C@@H](Cc1ccc(OP(=O)(O)O)cc1)C(=O)O` [Phosphotyrosine, O-phosho-L-tyrosine], the “displacement of phosphotyramide-dye ligand analog from antibody binding sites” value is “Minimal Displacement”.

These data come from patent publication US7282339B2, “Competitive immunoassay” (Invitrogen Corporation, priority 2003, dated 2007).
